Our source for the solubility in water, vapour pressure and MIC values is patent publication US20110071201A1, “PHENOL-CONTAINING AZOLE COMPOSITIONS FOR THE PROTECTION OF INDUSTRIAL MATERIALS” (LANXESS DEUTSCHLAND GMBH, priority 2009, published 2011).

The MIC is the smallest concentration in the dilution series that meets the test's criterion for growth inhibition.

A short description of series [1]: Solubility in water and vapour pressure. The class given is physicochemical.
The subject of series [2] is Coriolus versicolor. The series is described as follows: Agar hyphae growth inhibition test (MIC) with Kull synergism index. In kind it is cell-based. The following applies: Trametes versicolor, 168 h; malt extract/peptone nutrient agar, 26° C., about 1 week; concentration at which radial hyphae growth was suppressed completely; read-out: MIC value against Coriolus versicolor. The procedure:
Mycelium pieces were punched out of a colony of the wood-destroying organism Coriolus versicolor and incubated on a malt extract/peptone-containing nutrient agar at 26° C. The growth of the hyphae with and without active compound and 6,6′-di-tert-butyl-2,2′-methylenedi-p-cresol was compared. The minimum inhibitory concentration (MIC) stated was the concentration at which the radial hyphae growth was suppressed completely (incubation time: about 1 week, independently of the fungal growth of the comparative sample without active compound).
The synergism was determined by the method described by Kull et al. (F. C. Kull, P. C. Eismann, H. D. Sylvestrowicz, R. L. Mayer, Applied Microbiology 1961, 9, 538-541). The following relationships apply:
SI=1 means additivity SI>1 means antagonism SI<1 means synergism Qa=concentration of substance A which is the MIC Qb=concentration of substance B which is the MIC QA=concentration of substance A in the concentration of A/B at which microbial growth is suppressed QB=concentration of substance B in the concentration of A/B at which microbial growth is suppressed

The test system of series [3] is Lentinus tigrinus. The series is described as above. The settings on record: 168 h, malt extract/peptone nutrient agar, 26° C., about 1 week, concentration at which radial hyphae growth was suppressed completely, read-out: MIC value against Lentinus tigrinus. The class given is cell-based.

Consider `Cc1cc(Cc2cc(C)cc(C(C)(C)C)c2O)c(O)c(C(C)(C)C)c1` [phenol I, 6,6′-di-tert-butyl-2,2′-methylenedi-p-cresol], for which the solubility in water in series [1] is less than 1 ppm. The compound also registered a vapour pressure in series [1] (at 50° C.) of 0.0001 hPa. In addition, in series [2], the minimum inhibitory concentration (MIC) is more than 30 µg/mL.

As to `CC(C)(C)C(O)(CCc1ccc(Cl)cc1)Cn1cncn1` (centres unmarked) [tebuconazole, reference compound], the MIC was determined as 1 µg/mL in series [2] and 0.3 µg/mL in series [3].
